According to patent publication US20050282819A1, “Heterocyclic substituted indane derivatives and related compounds for the treatment of schizophrenia” (priority 2003, published 2005):

Molecular target: T1, dopamine D2 receptor (Homo sapiens, UniProt P14416)
T1 construct: expressed in transfected cells; host or cells: CHO cells (CHO-hD2L), membrane preparation
Test: Dopamine D2 receptor binding ([3H]spiperone, CHO-hD2L membranes)
Description: (§1) The ability of the compounds of this invention to bind to the dopamine D2 and serotonin 2A (5HT2A) receptors can be determined using conventional radioligand receptor binding assays. All receptors can be heterologously expressed in cell lines and experiments conducted in membrane preparations from the cell lines using procedures outlined below. IC50 concentrations can be determined by nonlinear regression of concentration-dependent reduction in specific binding. The Cheng-Prussoff equation can be used to convert the IC50 to Ki concentrations.
Dopamine D2 Receptor Binding:
[^3H]Spiperone binding to a membrane preparation from CHO-hD2L cells is carried out in 250 μl of 50 mM Tris-HCl buffer containing 100 mM NaCl, 1 mM MgCl2 and 1% DMSO at pH 7.4. Duplicate samples containing (in order of addition) the test compounds, 0.4 nM [^3H]spiperone and approximately 12 μg protein are incubated for 120 minutes at room temperature. Bound radioligand is separated by rapid filtration under reduced pressure through Whatman GF/B glass fiber filters previously treated with 0.3% polyethyleneimine. Radioactivity retained on the filter is determined by liquid scintillation spectrophotometry.
The title compounds of Examples 1-120 were tested using the above assay, in which specific binding determined in the presence of 1 mM haloperidol was 95%.

T1 sequence (P14416 whole entry): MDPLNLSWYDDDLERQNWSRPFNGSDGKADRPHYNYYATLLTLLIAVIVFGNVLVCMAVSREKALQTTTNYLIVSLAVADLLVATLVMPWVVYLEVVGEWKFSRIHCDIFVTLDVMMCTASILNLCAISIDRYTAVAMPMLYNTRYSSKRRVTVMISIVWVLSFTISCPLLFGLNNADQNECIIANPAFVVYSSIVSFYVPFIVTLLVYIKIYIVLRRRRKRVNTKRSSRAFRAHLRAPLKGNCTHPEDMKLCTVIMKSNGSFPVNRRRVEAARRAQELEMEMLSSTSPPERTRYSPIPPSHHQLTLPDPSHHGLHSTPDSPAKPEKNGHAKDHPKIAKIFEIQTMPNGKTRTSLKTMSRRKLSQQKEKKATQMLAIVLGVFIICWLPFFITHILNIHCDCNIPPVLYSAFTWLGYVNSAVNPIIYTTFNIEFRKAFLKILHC

Row | SMILES | Ki
1 | CC(=O)N[C@H]1Cc2ccc(CCN3CCN(c4nsc5ccccc45)CC3)cc2C1 [Example 60, (S)(+)-N-{5-[2-(4-BENZO[D]ISOTHIAZOL-3-YL-PIPERAZIN-1-YL)-ETHYL]-INDAN-2-YL}-ACETAMIDE] | 9 nM
2 | O=C(NC1CCc2ccc(CCN3CCN(c4nsc5ccccc45)CC3)cc21)c1ccno1 (stereo not shown) [Example 58, ISOXAZOLE-5-CARBOXYLIC ACID {6-[2-(4-BENZO[D]ISOTHIAZOL-3-YL-PIPERAZIN-1-YL)-ETHYL]-INDAN-1-YL}-AMIDE] | 3 nM
3 | O=C(Cc1ccoc1)NC1CCc2ccc(CCN3CCN(c4nsc5ccccc45)CC3)cc21 (stereo not shown) [Example 56, N-{6-[2-(4-BENZO[D]ISOTHIAZOL-3-YL-PIPERAZIN-1-YL)-ETHYL]-INDAN-1-YL}-2-FURAN-3-YL-ACETAMIDE] | 5 nM

Molecular target: T2, serotonin 2A (5HT2A) receptor (Homo sapiens, UniProt P28223)
T2 construct: expressed in transfected cells; host or cells: Swiss-h5HT2A cells, membranes
T2 sequence (P28223 whole entry): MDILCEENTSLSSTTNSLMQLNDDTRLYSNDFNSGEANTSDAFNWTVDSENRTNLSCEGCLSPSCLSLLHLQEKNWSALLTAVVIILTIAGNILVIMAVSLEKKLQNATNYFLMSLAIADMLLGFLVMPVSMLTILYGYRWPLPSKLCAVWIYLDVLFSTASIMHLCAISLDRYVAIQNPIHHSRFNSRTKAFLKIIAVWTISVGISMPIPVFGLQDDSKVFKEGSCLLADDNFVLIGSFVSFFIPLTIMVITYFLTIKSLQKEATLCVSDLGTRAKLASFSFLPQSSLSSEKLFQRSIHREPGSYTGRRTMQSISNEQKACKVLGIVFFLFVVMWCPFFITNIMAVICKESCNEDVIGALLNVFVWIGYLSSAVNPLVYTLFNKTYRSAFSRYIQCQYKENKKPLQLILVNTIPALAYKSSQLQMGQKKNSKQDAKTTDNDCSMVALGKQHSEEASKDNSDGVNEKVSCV
Test: Serotonin 2A binding ([3H]ketanserin, Swiss-h5HT2A cell membranes)
Description: as §1
[^3H]Ketanserin binding to Swiss-h5HT2A cell membranes can be carried out in 250 μl of 50 mM Tris-HCl buffer pH 7.4. Duplicate samples containing (in order of addition) test compounds, 1.0 nM [^3H]ketanserin, and approximately 75 μg protein are incubated for 120 minutes at room temperature. Bound radioligand is separated by rapid filtration under reduced pressure through Whatman GF/B glass fiber filters previously treated with 0.3% polyethyleneimine. Radioactivity retained on the filter is determined by liquid scintillation spectrophotometry.

Row | SMILES | Ki
4 | CC(=O)N[C@H]1Cc2ccc(CCN3CCN(c4nsc5ccccc45)CC3)cc2C1 [Example 60, (S)(+)-N-{5-[2-(4-BENZO[D]ISOTHIAZOL-3-YL-PIPERAZIN-1-YL)-ETHYL]-INDAN-2-YL}-ACETAMIDE] | 0.09 nM
5 | O=C(NC1CCc2ccc(CCN3CCN(c4nsc5ccccc45)CC3)cc21)c1ccno1 (stereo not shown) [Example 58, ISOXAZOLE-5-CARBOXYLIC ACID {6-[2-(4-BENZO[D]ISOTHIAZOL-3-YL-PIPERAZIN-1-YL)-ETHYL]-INDAN-1-YL}-AMIDE] | 0.03 nM
6 | O=C(Cc1ccoc1)NC1CCc2ccc(CCN3CCN(c4nsc5ccccc45)CC3)cc21 (stereo not shown) [Example 56, N-{6-[2-(4-BENZO[D]ISOTHIAZOL-3-YL-PIPERAZIN-1-YL)-ETHYL]-INDAN-1-YL}-2-FURAN-3-YL-ACETAMIDE] | 0.55 nM

Test system: not given
Test: not given

Row | SMILES | melting point
7 | CC1(C)c2ccc(C(F)CN3CCN(c4nsc5ccccc45)CC3)cc2C(C)(C)C1O (stereo not shown) [Example 79, 5-[2-(4-BENZO[D]ISOTHIAZOL-3-YL-PIPERAZIN-1-YL)-1-FLUORO-ETHYL]-1,1,3,3-TETRAMETHYL-INDAN-2-OL] | 49 to 54 °C
8 | CC1(C)C(=O)C(C)(C)c2cc(CCCN3CCN(c4noc5ccccc45)CC3)ccc21.CS(=O)(=O)O | 200 to 203 °C (dec.)
9 | CCN(C(C)=O)C1Cc2cc(CCN3CCN(c4nsc5ccccc45)CC3)ccc2C1(C)C.CS(=O)(=O)O (stereo not shown) | 60 to 70 °C
10 | CC1(C)C(=O)C(C)(C)c2cc(CCCN3CCN(c4nsc5ccccc45)CC3)ccc21.CS(=O)(=O)O | 144 to 147 °C
11 | CC1(C)C(=O)C(C)(C)c2cc(C(O)CN3CCN(c4nsc5ccccc45)CC3)ccc21 (stereo not shown) [Example 77, 5-[2-(4-BENZO[D]ISOTHIAZOL-3-YL-PIPERAZIN-1-YL)-1-HYDROXYETHYL]-1,1,3,3-TETRAMETHYL-INDAN-2-ONE] | 189 to 191 °C
12 | CC1(C)c2ccc(C(O)CN3CCN(c4nsc5ccccc45)CC3)cc2C(C)(C)C1O (stereo not shown) [Example 80, 5-[2-(4-BENZO[D]ISOTHIAZOL-3-YL-PIPERAZIN-1-YL)-1-HYDROXY-ETHYL]-1,1,3,3-TETRAMETHYL-INDAN-2-OL] | 88 to 97 °C
13 | CC(=O)N(C)C1C(C)(C)c2ccc(CCN3CCN(c4nsc5ccccc45)CC3)cc2C1(C)C.CS(=O)(=O)O (stereo not shown) | 248 to 250 °C
14 | CC1(C)C(=O)C(C)(C)c2cc(CCN3CCN(c4nsc5ccccc45)CC3)ccc21 [Example 82, 5-[2-(4-BENZO[D]ISOTHIAZOL-3-YL-PIPERAZIN-1-YL)-ETHYL]-1,1,3,3-TETRAMETHYL-INDAN-2-ONE] | 122 to 126 °C
15 | CC(=O)NC1C(C)(C)c2ccc(CCN3CCN(c4noc5ccccc45)CC3)cc2C1(C)C.CS(=O)(=O)O (stereo not shown) | 197 to 205 °C
16 | CC(=O)NC1Cc2ccc(CCN3CCN(c4nsc5ccccc45)CC3)cc2C1(C)C (racemic) | 62 to 72 °C
17 | CC1(C)c2ccc(CCN3CCN(c4nsc5ccccc45)CC3)cc2C(C)(C)C1O (stereo not shown) [Example 83, 5-[2-(4-BENZO[D]ISOTHIAZOL-3-YL-PIPERAZIN-1-YL)-ETHYL]-1,1,3,3-TETRAMETHYL-INDAN-2-OL] | 47 to 49 °C
18 | CC1(C)c2ccc(C(O)CN3CCN(c4n[nH]c5ccccc45)CC3)cc2C(C)(C)C1O (stereo not shown) [Example 86, 5-{1-HYDROXY-2-[4-(1H-INDAZOL-3-YL)-PIPERAZIN-1-YL]-ETHYL}-1,1,3,3-TETRAMETHYL-INDAN-2-OL] | 104 to 110 °C
19 | CCOC(CN1CCN(c2noc3ccccc23)CC1)c1ccc2c(c1)C(C)(C)C(=O)C2(C)C.CS(=O)(=O)O (stereo not shown) | 219 to 222 °C
20 | CNC1C(C)(C)c2ccc(CCN3CCN(c4nsc5ccccc45)CC3)cc2C1(C)C.CS(=O)(=O)O (stereo not shown) | 200 to 203 °C (dec.)
21 | CCN(C(C)=O)C1Cc2ccc(CCN3CCN(c4nsc5ccccc45)CC3)cc2C1(C)C.CS(=O)(=O)O (stereo not shown) | 62 to 72 °C
22 | CC1(C)C(=O)C(C)(C)c2cc(C(F)CN3CCN(c4nsc5ccccc45)CC3)ccc21 (stereo not shown) [Example 78, 5-[2-(4-BENZO[D]ISOTHIAZOL-3-YL-PIPERAZIN-1-YL)-1-FLUORO-ETHYL]-1,1,3,3-TETRAMETHYL-INDAN-2-ONE] | 64 to 73 °C
23 | CNC(CN1CCN(c2nsc3ccccc23)CC1)c1ccc2c(c1)C(C)(C)C(O)C2(C)C (stereo not shown) [Example 85, 5-[2-(4-BENZO[D]ISOTHIAZOL-3-YL-PIPERAZIN-1-YL)-1-METHYLAMINO-ETHYL]-1,1,3,3-TETRAMETHYL-INDAN-2-OL] | 96 to 101 °C
24 | CCNC1Cc2cc(CCN3CCN(c4nsc5ccccc45)CC3)ccc2C1(C)C.CS(=O)(=O)O (stereo not shown) | 115 to 125 °C (dec.)
25 | CCNC1Cc2ccc(CCN3CCN(c4nsc5ccccc45)CC3)cc2C1(C)C.CS(=O)(=O)O (stereo not shown) | 125 to 135 °C
26 | CC1(C)C(=O)C(C)(C)c2cc(CCN3CCN(c4noc5ccccc45)CC3)ccc21.CS(=O)(=O)O | 259 to 261 °C
27 | CC(=O)NC1Cc2cc(CCN3CCN(c4nsc5ccccc45)CC3)ccc2C1(C)C (racemic) [Example 115, N-{5-[2-(4-BENZO[D]ISOTHIAZOL-3-YL-PIPERAZIN-1-YL)-ETHYL]-1,1-DIMETHYL-INDAN-2-YL}-ACETAMIDE] | 58 to 68 °C
28 | CC(=O)NC1C(C)(C)c2ccc(CCN3CCN(c4nsc5ccccc45)CC3)cc2C1(C)C (stereo not shown) [Example 109, N-{5-[2-(4-BENZO[D]ISOTHIAZOL-3-YL-PIPERAZIN-1-YL)-ETHYL]-1,1,3,3-TETRAMETHYL-INDAN-2-YL}-ACETAMIDE] | 75 to 80 °C
